Results as given in article PMC10763754 (Science Advances, 2021).
Entries after “also recorded” stand apart in the source; their conditions may differ. Like-named read-outs stand apart in the source and are kept apart here.

Assays:
CDC34A-ubiquitin complex = CDC34A-ubiquitin complex (Homo sapiens, UniProt P0CG48+P49427); experiment: biochemical; type: binding
CDC34A = CDC34A (Homo sapiens, UniProt P0CG48+P49427); settings: cited from earlier work
Chain of CDC34A (P49427 whole entry, other chains not shown): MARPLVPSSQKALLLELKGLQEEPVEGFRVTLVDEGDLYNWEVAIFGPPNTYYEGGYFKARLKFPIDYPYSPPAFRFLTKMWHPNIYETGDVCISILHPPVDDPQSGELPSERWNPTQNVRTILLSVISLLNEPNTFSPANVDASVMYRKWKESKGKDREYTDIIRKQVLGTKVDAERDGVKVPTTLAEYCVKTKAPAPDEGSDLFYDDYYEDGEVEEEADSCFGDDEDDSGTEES

Chain of CDC34A-ubiquitin complex (P49427 whole entry, other chains not shown): as above

Row | Structure (SMILES) | EC50 (CDC34A-ubiquitin complex; TR-FRET EC50) [µM] | activity in the TR-FRET assay (in words) (CDC34A-ubiquitin complex) | further results
1 | COCC(=O)N1CCC(Cc2ccc(-c3cccc(C)c3)cc2)(C(=O)NC(C)C)CC1 [compound 1] |  |  | EC50 (CDC34A-ubiquitin complex): 327 µM; fold worse than CC0651 in the TR-FRET screen assay (CDC34A-ubiquitin complex): 10 fold
2 | CCNC(=O)C1(Cc2ccc(-c3cc(Cl)cc(Cl)c3)cc2)CCN(C(=O)CCOC)CC1 [2cb] | 2 |  | 
3 | CCNC(=O)C1(Cc2ccc(-c3cc(Cl)cc(Cl)c3)cc2)CCN(C(=O)OCC(C)C)CC1 [2db] | 0.4 |  | fold increase in TR-FRET potency relative to parent 2ab (CDC34A-ubiquitin complex): 10 fold
4 | COCC(=O)N1CCC(Cc2ccc(-c3cc(Cl)cc(Cl)c3)cc2)(c2nnc(C)o2)CC1 [4a] |  | abolished activity | 
5 | CCNC(=O)C1(Cc2ccc(-c3cc(Cl)cc(Cl)c3)cc2)CCN(C(=O)[C@@H]2CCCO2)CC1 [2fb] | 17 to 23 |  | 
6 | COCC(=O)N1CCC(Cc2ccc(-c3cc(Cl)cc(Cl)c3)cc2)(C(=O)N2CCCC2)CC1 [2aα] | 3 |  | 
7 | COCC(=O)N1CCC(Cc2ccc(-c3cc(Cl)cc(Cl)c3)cc2)(C(=O)N2CCCCC2)CC1 [2aη] | 1 |  | 
8 | CCCCCNC(=O)C1(Cc2ccc(-c3cc(Cl)cc(Cl)c3)cc2)CCN(C(=O)COC)CC1 [2ak] | 26 |  | 
9 | COCC(=O)N1CCC(Cc2ccc(-c3cc(Cl)cc(Cl)c3)cc2)(C(=O)NCC2CC2)CC1 [2ah] | 7 |  | 
10 | COCC(=O)N1CCC(Cc2ccc(-c3cc(Cl)cc(Cl)c3)cc2)(C(=O)NC(C)C)CC1 [2aa] | 12 |  | fold improvement in TR-FRET potency compared to hit 1 (CDC34A-ubiquitin complex): 27 fold
11 | COCC(=O)N1CCC(Cc2ccc(-c3cc(Cl)cc(Cl)c3)cc2)(C(=O)NC[C@@H](O)CO)CC1 [2au] |  | abrogated activity; also recorded: complete loss of activity | 
12 | COCC(=O)N1CCC(Cc2ccc(-c3cc(Cl)cc(Cl)c3)cc2)(C(=O)NC[C@@H](C)O)CC1 [2at] |  | abrogated activity; also recorded: complete loss of activity | 
13 | COCC(=O)N1CCC(Cc2ccc(-c3cc(Cl)cc(Cl)c3)cc2)(C(N)=O)CC1 [2ac] |  | lacked activity | 
14 | CCCNC(=O)C1(Cc2ccc(-c3cc(Cl)cc(Cl)c3)cc2)CCN(C(=O)COC)CC1 [2ae] | 4 |  | 
15 | CCNC(=O)C1(Cc2ccc(-c3cc(Cl)cc(Cl)c3)cc2)CCN(C(=O)[C@H]2CCCO2)CC1 [2eb] | 17 to 23 |  | 
16 | CCNC(=O)C1(Cc2ccc(-c3cc(Cl)cc(Cl)c3)cc2)CCN(C(=O)COC)CC1 [2ab] | 4 |  | fold improvement in TR-FRET potency compared to hit 1 (CDC34A-ubiquitin complex): > 80 fold
17 | COCC(=O)N1CCC(Cc2ccc(-c3cc(Cl)cc(Cl)c3)cc2)(C(=O)NC2CC2)CC1 [2al] | 5 |  | 
18 | CNC(=O)C1(Cc2ccc(-c3cc(Cl)cc(Cl)c3)cc2)CCN(C(=O)COC)CC1 [2ad] | 20 |  | 
19 | COCC(=O)N1CCC(Cc2ccc(-c3cc(Cl)cc(Cl)c3)cc2)(C(=O)N2CCOCC2)CC1 [2aζ] | 3 |  | 
20 | COCC(=O)N1CCC(Cc2ccc(-c3cc(Cl)cc(Cl)c3)cc2)(C(=O)NCCO)CC1 [2ai] |  | abrogated activity; also recorded: complete loss of activity | 
21 | COCC(=O)N1CCC(Cc2ccc(-c3cc(Cl)cc(Cl)c3)cc2)(NC(C)=O)CC1 [3a] |  | abolished TR-FRET activity | 
22 | Cc1nnc(C2(Cc3ccc(-c4cc(Cl)cc(Cl)c4)cc3)CCN(C(=O)COc3ccccc3)CC2)o1 [4b] |  | abolished activity | 
23 | COCC(=O)N1CCC(O)(c2ccc(-c3cc(Cl)cc(Cl)c3)cc2)CC1 [compound 6] |  | completely inactive | 
24 | CCCCCN1CCC(Cc2ccc(-c3cc(Cl)cc(Cl)c3)cc2)(C(=O)OCC)CC1 [compound 7] |  | complete abrogation of activity | 
25 | COCC(=O)N1CCC(Cc2ccc(-c3cc(Cl)cc(Cl)c3)cc2)(C(=O)O)CC1 [compound 12] |  | lacked activity | 
26 | COCC(=O)N1CCC(Cc2ccc(-c3cc(Cl)cc(Cl)c3)cc2)(C(=O)NC(C)(C)C)CC1 [2as] | 15 |  | 
27 | CCC(=O)NC1(Cc2ccc(-c3cc(Cl)cc(Cl)c3)cc2)CCN(C(=O)COC)CC1 [3b] |  | abolished TR-FRET activity | 
28 | CCNC(=O)C1(Cc2ccc(-c3cc(Cl)cc(Cl)c3)cc2)CCN(C(=O)c2ccccc2)CC1 [2gb] | 2 |  | 
29 | COCC(=O)N[C@@H](Cc1ccc(-c2cc(Cl)cc(Cl)c2)cc1)[C@H](O)[C@@H](O)C(=O)O [CC0651] |  |  | potency of CC0651 in vitro (CDC34A): ~ 5 μM
